Patent publication US20240335427A1, “SMALL MOLECULE INHIBITION OF DEUBIQUITINATING ENZYME JOSEPHIN DOMAIN CONTAINING 1 (JOSD1) AS A TARGETED THERAPY FOR LEUKEMIAS WITH MUTANT JANUS KINASE 2 (JAK2)” (DANA-FARBER CANCER INSTITUTE, INC., priority 2021, published 2024)

Assays:
[1] = tested on: Ba/F3-EPOR-JAK2-V617F-expressing cells; test: Ba/F3 cell proliferation (CellTiter Glo); assay type: cell-based, murine
Description: Proliferation and Drug Combination Studies. Proliferation and drug combination studies were carried out as previously described (Yang, et al., 2020, British Journal of Cancer, 122:1175-84).
As toxicities can result from small molecule targeting of both oncogenic mutated JAK2 as well as its non-mutated counterpart, a chemical genetics screen was designed and performed of a DUB-focused small molecule inhibitor library with the goal of leveraging crosstalk between phosphorylation and ubiquitination to identify DUB inhibitors able to selectively degrade mutant JAK2 while sparing wt JAK2. Of relevance, activated FLT3 can be selectively degraded over the wt enzyme by inhibition of the DUB, USP10, (Wernig, et al., 2008, Blood, 111(7):3751-9) and similar to FLT3, JAK2 is ubiquitinated in an activation-dependent manner. In brief, the library of known and novel DUB inhibitors was evaluated for ability to suppress growth of Ba/F3-EPOR-JAK2-V617F-expressing cells selectively over Ba/F3-EPOR cells growing in the presence of interleukin-3.
(§1) A broader range of compounds 1 and 2, including concentrations lower than 1 μM, were also tested on growth of EPOR-JAK2-V617F-expressing Ba/F3 cells and parental Ba/F3 EpoR+ cells (24 hours treatment on 4000 cells per well) (FIG. 18-FIG. 18B). Cell growth inhibition (FIG. 17A-FIG. 17B, FIG. 18A-FIG. 18B) was tested on Ba/F3-EPOR-JAK2-V617F (-IL-3/WEHI) and parental Ba/F3-EPOR cells (+IL-3/WEHI) plated at 2000 cells per well, at 1, 3 and 10 μM for 24 hours using the Promega CellTiter Glo® assay.

JAK2-V617F [2] = test: JAK2 protein level by western blotting in Ba/F3-EPOR-JAK2-V617F cells; assay type: cell-based
Description: Immunoblotting and Immunoprecipitation. Protein lysate preparation, immunoblotting, and immunoprecipitation were carried out as previously described (Lamberto, et al., 2017 Cell Chem Biol., 224(12):1490-500 e11). Briefly, 0.7×10^6 cells were treated with compounds 1 and 2 at 0, 5, 10, […], cells were collected, and lysate was prepared in radioimmunoprecipitation assay (RIPA) buffer, JAK family and downstream signaling protein levels were detected by western blotting with the indicated antibodies. For immunoprecipitation, 1 mg protein for each sample was prepared and 1 μg antibody was used, immunoglobulin G (IgG) was added in same amount as nontargeting control.
as §1

normal bone marrow cells = test: Normal bone marrow colony assay; assay type: cell-based, human
Description: Normal human bone marrow was also analyzed in a colony assay: 24-well plates seeded with 200 cells/well in MethoCult™ H4434 Classic (methylcellulose-based medium with recombinant cytokines for human cells) ([…] Technologies™ INC., Vancouver, British Columbia, Canada). The plates contained targeted JOSD1 inhibitors at the indicated concentrations. Plates were incubated at 37° C. in 5% CO2 for >1 week, and then myeloid and erythroid colonies (early progenitors with erythroid and myeloid components: colony-forming unit for granulocytes and macrophages (CFU-GM), CFU-erythroid (E), BFU-E, and CFU-granulocyte, erythroid, macrophage, megakaryocyte (GEMM) were counted on an inverted microscope.

[3] = tested on: JAK2-V617F-positive primary AML patient samples; test: AML liquid culture proliferation, primary patient samples; assay type: cell-based, human
Text: AML liquid culture proliferation and colony assay studies. Frozen vials of bone marrow from AML patients identified as harboring JAK2-V617F were previously Ficoll®-purified to obtain mononuclear cells and thawed prior to use in studies.

JAK2-V617F [4] = target: JAK2-V617F (Homo sapiens (Human), UniProt O60674, V617F); test: JAK2-V617F protein loss in human AML cell lines by western blotting; assay type: cell-based; details: HEL cells, co-treatment with cycloheximide
Description: Immunoblotting and Immunoprecipitation. Protein lysate preparation, immunoblotting, and immunoprecipitation were carried out as previously described (Lamberto, et al., 2017 Cell Chem Biol., 224(12):1490-500 e11). Briefly, 0.7×10^6 cells were treated with compounds 1 and 2 at 0, 5, 10, and 20 μM for 16 or 24 hours, cells were collected, and lysate was prepared in radioimmunoprecipitation assay (RIPA) buffer, JAK family and downstream signaling protein levels were detected by western blotting with the indicated antibodies. For immunoprecipitation, 1 mg protein for each sample was prepared and 1 μg antibody was used, immunoglobulin G (IgG) was added in same amount as nontargeting control.

USP30 = USP30 (Homo sapiens (Human), UniProt Q70CQ3); test: USP30 biochemical IC50
USP30, sequence (Q70CQ3 whole entry, species assumed): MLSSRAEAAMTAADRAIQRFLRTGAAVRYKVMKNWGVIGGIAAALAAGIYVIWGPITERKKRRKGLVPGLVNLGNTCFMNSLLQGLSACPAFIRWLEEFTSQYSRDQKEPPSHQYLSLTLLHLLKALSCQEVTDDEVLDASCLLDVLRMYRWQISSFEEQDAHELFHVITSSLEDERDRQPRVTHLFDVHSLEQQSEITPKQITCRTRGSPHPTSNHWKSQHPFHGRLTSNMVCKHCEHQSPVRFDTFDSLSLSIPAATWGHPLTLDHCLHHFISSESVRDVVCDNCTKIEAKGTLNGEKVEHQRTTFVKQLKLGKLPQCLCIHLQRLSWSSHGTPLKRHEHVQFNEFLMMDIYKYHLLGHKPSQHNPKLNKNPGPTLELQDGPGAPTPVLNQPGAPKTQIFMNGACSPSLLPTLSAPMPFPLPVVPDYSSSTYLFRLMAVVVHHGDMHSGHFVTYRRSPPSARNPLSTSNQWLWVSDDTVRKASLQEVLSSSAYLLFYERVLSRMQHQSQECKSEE

[5] = tested on: native DUBs (UCHL1, USP30 and JOSD1); test: Competitive activity-based protein profiling with quantitative mass spectrometry in HEK-293T lysates; assay type: binding; details: block of labeling by DUB activity-based probes
Description: Activity Based Protein Profiling (ABPP) assay. DUB targets were investigated using competitive ABPP with quantitative mass spectrometry. The ability to block labeling of 50 DUBs by ubiquitin-based DUB activity-based probes was quantitatively measured in HEK-293T lysates.
DUB ABPP of Compound Targets. Activity-based probes biotin-Ub-PA (UbiQ-076) and biotin-Ub-VME (UbiQ-054) were obtained from UbiQ Bio. DUB Activity based protein profiling was performed using conditions modified from those in Schauer, et al., 2020, Scientific Reports, 10:1-15, based on work by Lawson, et al., 2017 Oncotarget, 8:51296-316. HEK 293T cells were lysed (50 mM Tris pH 8.0, 150 mM NaCl, 5 mM MgC2, 0.5 mM EDTA, 0.5% NP-40, 10% glycerol, 1 mM tris(2-carboxyethyl)phosphine (TCEP), protease and phosphatase inhibitors) and the lysate was clarified by centrifugation, then diluted to 10 mg/mL. 200 μL aliquots were incubated at the indicated compound concentrations or DMSO for 5 hours at room temperature, final DMSO concentration 0.5%. Afterwards, the treated lysates were incubated with 1 μM each of Biotin-Ub-PA and Biotin-Ub-VME for 90 minutes at room temperature. […]
Specifically, quantitative mass spectrometry was utilized to measure the ability of compounds 1 and 2 to block labeling of […] native DUBs by ubiquitin-based DUB activity-based probes in HEK-293T lysates. […]

For `Cc1noc(C)c1-c1cccc2nc(NC(=O)[C@H]3CCN(C#N)C3)sc12` [Compound 2, (S)-1-cyano-N-(7-(3,5-dimethylisoxazol-4-yl)benzo[d]thiazol-2-yl)pyrrolidine-3-carboxamide], the “killing of Ba/F3-EPOR-JAK2-V617F cells compared to wt JAK2-expressing parental Ba/F3 cells” value [1] was “selective killing”, the cell growth inhibition ([1]; 1, 3 and 10 μM, 24 hours, independent experiments) was “inhibit growth” and the “JAK2 degradation, independent western blotting” value (JAK2-V617F [2]; 18 hours, 10 μM compound 1 or 5 μM compound 2) was “degradation of JAK2”. The JAK2-V617F protein level (JAK2-V617F [2]; Ba/F3-EPOR-JAK2-V617F-expressing cells) was “decreases in JAK2-V617F protein”, the “normal bone marrow colony formation” value (normal bone marrow cells; 5 μM or higher) was “significantly impaired” and the “normal bone marrow colony formation” value (normal bone marrow cells; concentrations up to 2.5 μM) was “colonies were able to form”. The “potency against JAK2-V617F-positive cells versus normal bone marrow cells” value ([3]; compound 2: 24 h treatment, ruxolitinib: FIG. 16C) was “higher potency exhibited against JAK2-V617F-positive cells than normal bone marrow cells”, the primary cell viability ([3]; starting at concentrations around 1 μM) was “concentration-dependent decrease in primary cell viability” and the JAK2-V617F protein half-life (JAK2-V617F [4]) was “shorten JAK2-V617F protein half-life”. The “USP30 biochemical IC50 (range in words)” value (USP30) was “several hundred” and the “target engagement of UCHL1, USP30 and JOSD1” value [5] was “dose-dependent target engagement”.
